According to US4699904A, “Tetrazolyl derivatives of β-lactams useful as elastase inhibitors” (Merck & Co., Inc., priority 1985, dated 1987):

Molecular target: T1, Human Polymorphonuclear Leukocyte Elastase (Homo sapiens, UniProt P08246)
T1 construct: Crude extract of human polymorphonuclear leukocytes (PMN) containing elastase activity; from tissue; host or cells: human polymorphonuclear leukocytes (crude extract)
T1 sequence (P08246 30-247 limits assumed): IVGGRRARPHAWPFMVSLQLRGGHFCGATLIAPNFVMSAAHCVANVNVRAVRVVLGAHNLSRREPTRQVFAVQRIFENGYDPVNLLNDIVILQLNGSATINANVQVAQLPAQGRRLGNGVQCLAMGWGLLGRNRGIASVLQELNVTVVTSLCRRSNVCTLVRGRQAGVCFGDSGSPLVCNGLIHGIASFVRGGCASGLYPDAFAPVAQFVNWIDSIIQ
Test: Inhibition of human polymorphonuclear leukocyte elastase via hydrolysis of N-t-Boc-alanyl-alanyl-prolylalanine-p-nitroanilide
Assay type: biochemical
Conditions: crude PMN extract, Boc-AAPAN substrate, pH 7.5
Experimental: Protocol Enzyme Assays for the Inhibition of Human Polymorphonuclear Leukocyte Elastase Via Hydrolysis of N-t-Boc-alanyl-alanyl-prolylalanine-p-nitroanilide Reagents:
0.05M TES (N-tris[hydroxymethyl]methyl-2-amino-ethanesulfonic acid) Buffer, pH 7.5.
0.2 mM N-t-Boc-alanyl-alanyl-prolyl-alanine-p-nitroanilide (Boc-AAPAN).
To prepare substrate, the solid (m.w. 550) was first dissolved in 10.0 ml DMSO. Buffer at pH 7.5 was then added to a final volume of 100 ml.
Crude extract of human polymorphonuclear leukocytes (PMN) containing elastase activity.
Inhibitors (cephalosporin sulfone esters) to be tested dissolved in DMSO just before use.
To 1.0 ml of 0.2 mM Boc-AAPAN in a cuvette, 0.01-0.1 ml of DMSO with or without inhibitor was added. After mixing, a measurement was taken at 410 mμ to detect any spontaneous hydrolysis due to presence of test compound. 0.05 Milliliters of PMN extract was then added and the ΔOD/min at 410 mμ was measured and recorded. Beckman model 35 spectrophotometer was used.
Results were reported as ED50, i.e., effective dosage in micrograms per milliliter (μg/ml) for 50% inhibition of the enzyme activity 2 minutes after zero time.
The elastase activity in the crude PMN extract may vary from one preparation to another. A control of each new batch is run, and the volume added in the assay procedure is adjusted according to activity.

[1] = Table III, upper part, 2 minutes after zero time
[2] = Table III, lower part, 2 minutes after zero time
[3] = Table I, 50% inhibition 2 minutes after zero time
[4] = Table II, 50% inhibition 2 minutes after zero time

IC50 [3]	IC50 [4]	Compound	also measured
		COc1ccc(Cn2nnnc2[C@@H]2N3C(=O)[C@@H](NC(=O)C(F)(F)F)C3S(=O)(=O)C2(C)C)cc1 (some centres unmarked) [drawing 31, n=2]	IC50 [1]: 1020 nM
		COc1ccc(Cn2nnnc2C2N3C(=O)C(NC(=O)C(F)(F)F)C3S(=O)(=O)C2(C)C)cc1 (centres unmarked) [drawing 32, n=2]	IC50 [2]: 409 nM
9210 nM		CO[C@H]1C(=O)N2C(c3nnn[nH]3)=C(COC(=O)NCc3ccccc3)CS(=O)(=O)[C@H]12 [R^1=OCH3, A=.phi.CH2NHCOO, R=H, Q^1=H, 3-(N-Benzyl-carbamoyloxy-methyl)-7α-methoxy-4-(1H-tetrazol-5-yl)-3-cephem-1,1-dioxide]	
	7470 nM	CO[C@H]1C(=O)N2C(c3nnn(CC(=O)O)n3)=C(COC(C)=O)CS(=O)(=O)[C@H]12 [Table II: A=CH3COO, R=CH2COOH, Q^1=H]	
	628 nM	CO[C@H]1C(=O)N2C(c3nnn(Cc4ccccc4C(=O)O)n3)=C(COC(C)=O)CS(=O)(=O)[C@H]12	
		COc1ccc(Cn2nnnc2[C@@H]2N3C(=O)[C@@H](NC(=O)C(F)(F)F)C3[S+]([O-])C2(C)C)cc1 (some centres unmarked) [drawing 31, n=1]	IC50 [1]: 4230 nM
1420 nM		COc1ccc(Cn2nnnc2C2=C(COC(=O)N(C)C)CS(=O)(=O)[C@@H]3[C@@H](OC)C(=O)N23)cc1 [R^1=OCH3, A=(CH3)2NCOO, R=PMB, Q^1=H]	
	562 nM	CO[C@H]1C(=O)N2C(c3nnn(Cc4ccccc4C(=O)OC(C)(C)C)n3)=C(COC(C)=O)CS(=O)(=O)[C@H]12	
	560 nM	CO[C@H]1C(=O)N2C(c3nnn(C)n3)=C(COC(C)=O)CS(=O)(=O)[C@H]12 [Table II: A=CH3COO, R=CH3, Q^1=H]	
		COc1ccc(Cn2nnnc2C2N3C(=O)C(NC(=O)C(F)(F)F)C3SC2(C)C)cc1 (centres unmarked) [drawing 32, n=0]	IC50 [2]: 21900 nM
5370 nM		CO[C@H]1C(=O)N2C(c3nnn[nH]3)=C(COC(=O)N(C)C)CS(=O)(=O)[C@H]12 [R^1=OCH3, A=(CH3)2NCOO, R=H, Q^1=H]	
541 nM		COc1ccc(Cn2nnnc2C2=C(COC(=O)NCc3ccccc3)CS(=O)(=O)[C@@H]3[C@@H](OC)C(=O)N23)cc1 [R^1=OCH3, A=.phi.CH2NHCOO, R=PMB, Q^1=H, 3-(N-benzyl-carbamoyloxy-methyl)-7α-methoxy-4-(1-p-methoxybenzyl-tetrazol-5-yl)-3-cephem-1,1-dioxide]	
		COc1ccc(Cn2nnnc2[C@@H]2N3C(=O)[C@@H](NC(=O)C(F)(F)F)C3SC2(C)C)cc1 (some centres unmarked) [drawing 31, n=0]	IC50 [1]: 4380 nM

Compound	IC50 [3]	IC50 [4]	also measured
COc1ccc(Cn2nnnc2C2=C(COC(C)=O)CS(=O)(=O)[C@@H]3[C@@H](OC)C(=O)N23)cc1 [R^1=OCH3, A=CH3COO, R=PMB, Q^1=H, 3-acetoxymethyl-7α-methoxy-4-[1-(p-methoxybenzyl)tetrazol-5-yl]-3-cephem-1,1-dioxide]	1730 nM		
CO[C@H]1C(=O)N2C(c3nnn[nH]3)=C(COC(C)=O)CS(=O)(=O)[C@H]12 [R^1=OCH3, A=CH3COO, R=H, Q^1=H, 3-Acetoxymethyl-7α-methoxy-4-(tetrazol-5-yl)-3-cephem-1,1-dioxide]	58300 nM		
CO[C@H]1C(=O)N2C(c3nnn(Cc4ccc(C(=O)O)cc4)n3)=C(COC(C)=O)CS(=O)(=O)[C@H]12 [3-acetoxymethyl-7α-methoxy-4-[2-(-hydroxycarbonylbenzyl)tetrazol-5-yl]-3-cephem-1,1-dioxide]		419 nM	
CO[C@H]1C(=O)N2C(c3nnn(Cc4ccc(C(=O)OC(C)(C)C)cc4)n3)=C(COC(C)=O)CS(=O)(=O)[C@H]12 [3-acetoxymethyl-7α-methoxy-4-[2-(p-t-butoxycarbonylbenzyl)tetrazol-5-yl]-3-cephem-1,1-dioxide]		75 nM	
